In assay [1] the target is T1, Alpha-1A adrenergic receptor (Homo sapiens, UniProt P35348).
T1 sequence (P35348 whole entry): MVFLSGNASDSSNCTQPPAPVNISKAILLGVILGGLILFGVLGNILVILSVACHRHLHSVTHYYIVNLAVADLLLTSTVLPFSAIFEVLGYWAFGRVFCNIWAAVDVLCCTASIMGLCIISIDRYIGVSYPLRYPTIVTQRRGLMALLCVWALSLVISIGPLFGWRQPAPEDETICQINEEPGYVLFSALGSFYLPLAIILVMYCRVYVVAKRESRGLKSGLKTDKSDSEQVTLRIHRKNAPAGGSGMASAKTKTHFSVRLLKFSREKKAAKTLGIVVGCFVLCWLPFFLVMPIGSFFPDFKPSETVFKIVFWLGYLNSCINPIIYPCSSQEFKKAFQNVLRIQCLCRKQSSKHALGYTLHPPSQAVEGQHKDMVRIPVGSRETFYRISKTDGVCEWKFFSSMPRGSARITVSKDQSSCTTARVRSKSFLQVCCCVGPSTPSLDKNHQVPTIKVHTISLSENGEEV
Description: Displacement of [125I]HEAT from human recombinant adrenergic alpha1A receptor.

In assay [2] the target is T2, Alpha-1B adrenergic receptor (Homo sapiens, UniProt P35368).
T2 sequence (P35368 whole entry): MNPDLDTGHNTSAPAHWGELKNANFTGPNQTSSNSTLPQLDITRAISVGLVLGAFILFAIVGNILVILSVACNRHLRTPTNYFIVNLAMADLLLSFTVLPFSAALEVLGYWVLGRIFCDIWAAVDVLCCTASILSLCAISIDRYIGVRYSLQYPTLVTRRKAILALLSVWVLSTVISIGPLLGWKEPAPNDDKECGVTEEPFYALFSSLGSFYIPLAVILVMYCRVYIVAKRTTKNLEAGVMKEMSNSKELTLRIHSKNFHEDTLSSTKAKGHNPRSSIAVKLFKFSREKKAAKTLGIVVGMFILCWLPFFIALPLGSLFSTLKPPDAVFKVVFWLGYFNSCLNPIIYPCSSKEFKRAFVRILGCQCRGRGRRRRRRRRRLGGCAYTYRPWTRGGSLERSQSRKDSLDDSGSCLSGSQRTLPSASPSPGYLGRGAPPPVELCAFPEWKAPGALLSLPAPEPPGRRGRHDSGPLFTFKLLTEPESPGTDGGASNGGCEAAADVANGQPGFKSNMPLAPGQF
The assay can be described thus: Displacement of [125I]HEAT from human recombinant adrenergic Alpha-1B receptor. In general terms: Loss of bound radioactivity is the signal in a displacement assay; it reports binding, not function.

For another assay, the target named is D(2) dopamine receptor (Homo sapiens, UniProt P14416). The assay can be described thus: Displacement of [125I]spiperone from human recombinant dopamine D2 receptor.
D(2) dopamine receptor, sequence (P14416 whole entry): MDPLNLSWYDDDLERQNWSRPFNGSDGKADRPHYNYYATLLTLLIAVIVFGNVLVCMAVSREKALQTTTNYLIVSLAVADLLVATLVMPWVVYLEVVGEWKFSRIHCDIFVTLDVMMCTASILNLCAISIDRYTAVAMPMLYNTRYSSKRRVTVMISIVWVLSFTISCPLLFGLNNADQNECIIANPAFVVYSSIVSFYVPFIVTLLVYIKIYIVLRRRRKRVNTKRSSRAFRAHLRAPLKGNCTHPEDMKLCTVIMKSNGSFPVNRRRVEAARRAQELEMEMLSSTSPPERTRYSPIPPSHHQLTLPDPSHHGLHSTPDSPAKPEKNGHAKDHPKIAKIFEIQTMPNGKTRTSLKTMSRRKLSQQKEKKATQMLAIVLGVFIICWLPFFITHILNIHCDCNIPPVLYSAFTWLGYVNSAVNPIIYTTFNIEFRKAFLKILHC
The species entered for another assay is Homo sapiens. The assay can be described thus: Selectivity for human alpha1A receptor over human Alpha-1D receptor.

In the case of `CC(C)Oc1ccccc1N1CCN(C2CCC(NC(=O)Nc3ccc(F)c(F)c3)CC2)CC1` (cis isomer), the inhibition constant Ki (commonly a dissociation constant, usually derived from enzyme kinetics or from competition with a known ligand) in assay [1] stood at 51 nM; in assay [2], 963 nM; on D(2) dopamine receptor, 127 nM.
As for `CC(C)Oc1ccccc1N1CCN(C2CCC(NC(=O)Nc3cc(F)ccc3F)CC2)CC1` (cis isomer), the inhibitory constant (Ki) in assay [1] came out at 26 nM; in assay [2], 259 nM; at D(2) dopamine receptor it was 199 nM.
On to `CC(C)Oc1ccccc1N1CCN(C2CCC(NC(=O)Nc3ccccc3Cl)CC2)CC1` (cis isomer), for which the figures for the Ki (in assay [1]; in assay [2]; on D(2) dopamine receptor) were 48 nM, 373 nM and 878 nM, respectively.
With `COc1ccc(Cl)cc1NC(=O)NC1CCC(N2CCN(c3ccccc3OC(C)C)CC2)CC1` (cis isomer), the Ki in assay [1] turned out to be 101 nM; at D(2) dopamine receptor it was 99 nM.
As to `CC(C)Oc1ccccc1N1CCN(C2CCC(NC(=O)Nc3ccc(F)cc3F)CC2)CC1` (cis isomer), the Ki in assay [1] was 14 nM; in assay [2] it was 475 nM; at D(2) dopamine receptor, 35.5 nM.
Turning to `CC(C)Oc1ccccc1N1CCN(C2CCC(NC(=O)Nc3c(Cl)cc(Cl)cc3Cl)CC2)CC1` (stereo in doubt), the figures for the inhibition constant (Ki) (in assay [1]; in assay [2]; at D(2) dopamine receptor) were 51 nM, 483 nM and 103 nM, respectively.
For the compound `CC(C)Oc1ccccc1N1CCN(C2CCC(NC(=O)Nc3ccc(F)c(F)c3)CC2)CC1` (stereo in doubt), the inhibition constant Ki in assay [1] worked out at 3.6 nM; in assay [2], 60 nM; at D(2) dopamine receptor it was 54 nM.
With `CC(C)Oc1ccccc1N1CCN(C2CCC(NC(=O)Nc3cc(F)ccc3F)CC2)CC1` (stereo in doubt) [listing 1 of 2 here], the inhibitory constant (Ki) in assay [1] amounted to 1.7 nM; in assay [2] it was 36.4 nM; on D(2) dopamine receptor it was 0.46 nM.
Regarding `CC(C)Oc1ccccc1N1CCN(C2CCC(NC(=O)Nc3ccccc3Cl)CC2)CC1` (stereo in doubt) [listing 1 of 2 here], the Ki in assay [1] is 11 nM; in assay [2], 39 nM; at D(2) dopamine receptor, 33 nM.
For the compound `CC(C)Oc1ccccc1N1CCN(C2CCC(NC(=O)Nc3cc(F)ccc3F)CC2)CC1` (stereo in doubt) [listing 2 of 2 here], the Ratio Ki in the assay filed under Homo sapiens came to 4.
In the case of `CC(C)Oc1ccccc1N1CCN(C2CCC(NC(=O)Nc3ccccc3Cl)CC2)CC1` (stereo in doubt) [listing 2 of 2 here], the Ratio Ki in the assay filed under Homo sapiens was found to be 4.
For the compound `CC(C)Oc1ccccc1N1CCN(C2CCC(NC(=O)NCc3cccc(F)c3)CC2)CC1` (stereo in doubt; cis), the results for the inhibition constant Ki (in assay [1]; in assay [2]; on D(2) dopamine receptor) were 82 nM, 706 nM and 183 nM, respectively.
`CC(C)Oc1ccccc1N1CCN(C2CCC(NC(=O)Nc3c(Cl)cccc3Cl)CC2)CC1` (stereo in doubt; cis): the Ki in assay [1] is 33 nM; at D(2) dopamine receptor it was 55 nM.
In the same order, the values of `COc1ccc(NC(=O)NC2CCC(N3CCN(c4ccccc4OC(C)C)CC3)CC2)c(OC)c1` (stereo in doubt; cis) are 110 nM and 288 nM.
Take `CC(C)Oc1ccccc1N1CCN(C2CCC(NC(=O)Nc3cccc(Cl)c3)CC2)CC1` (stereo in doubt; cis): the figures for the Ki (in assay [1]; at D(2) dopamine receptor) were 22 nM and 108 nM, respectively.
With `CC(C)Oc1ccccc1N1CCN(C2CCC(NC(=O)Nc3c(F)cccc3F)CC2)CC1` (stereo in doubt; cis), the inhibition constant (Ki) in assay [1] came to 52 nM; in assay [2] it was 299 nM; at D(2) dopamine receptor, 22 nM.
As for `COc1ccccc1NC(=O)NC1CCC(N2CCN(c3ccccc3OC(C)C)CC2)CC1` (stereo in doubt; cis), the inhibition constant Ki in assay [1] was found to be 155 nM; in assay [2], 223 nM; on D(2) dopamine receptor, 390 nM.
As for `CC(C)Oc1ccccc1N1CCN(C2CCC(NC(=O)NCc3cccc(F)c3)CC2)CC1` (stereo in doubt; trans) [listing 1 of 2 here], the inhibition constant (Ki) in assay [1] was found to be 11 nM; in assay [2], 69 nM; at D(2) dopamine receptor it was 120 nM.
As for `CC(C)Oc1ccccc1N1CCN(C2CCC(NC(=O)Nc3c(Cl)cccc3Cl)CC2)CC1` (stereo in doubt; trans), the figures for the Ki (in assay [1]; at D(2) dopamine receptor) were 6.2 nM and 4.7 nM, respectively.
For the compound `COc1ccc(NC(=O)NC2CCC(N3CCN(c4ccccc4OC(C)C)CC3)CC2)c(OC)c1` (stereo in doubt; trans), the inhibition constant (Ki) in assay [1] is 74 nM; on D(2) dopamine receptor it was 892 nM.
On to `CC(C)Oc1ccccc1N1CCN(C2CCC(NC(=O)Nc3cccc(Cl)c3)CC2)CC1` (stereo in doubt; trans), for which the results for the inhibition constant Ki (in assay [1]; on D(2) dopamine receptor) were 5.1 nM and 84 nM, respectively.
For `CC(C)Oc1ccccc1N1CCN(C2CCC(NC(=O)Nc3c(F)cccc3F)CC2)CC1` (stereo in doubt; trans), the Ki in assay [1] amounted to 5.3 nM; in assay [2], 36 nM; on D(2) dopamine receptor, 2.4 nM.
In the same order, the values of `COc1ccccc1NC(=O)NC1CCC(N2CCN(c3ccccc3OC(C)C)CC2)CC1` (stereo in doubt; trans) are 38 nM, 107 nM and 921 nM.
With `CC(C)Oc1ccccc1N1CCN(C2CCC(NC(=O)NCc3cccc(F)c3)CC2)CC1` (stereo in doubt; trans) [listing 2 of 2 here], in the assay filed under Homo sapiens, the Ratio Ki worked out at 4.
Turning to `CC(C)Oc1ccccc1N1CCN(C2CCC(NC(=O)Nc3c(Cl)cc(Cl)cc3Cl)CC2)CC1` (trans isomer) [listing 1 of 2 here], the figures for the Ki (in assay [1]; in assay [2]; on D(2) dopamine receptor) were 6.5 nM, 112 nM and 6.5 nM, respectively.
Turning to `COc1ccc(Cl)cc1NC(=O)NC1CCC(N2CCN(c3ccccc3OC(C)C)CC2)CC1` (trans isomer), the Ki in assay [1] was 34 nM; on D(2) dopamine receptor, 1.2 nM.
On to `CC(C)Oc1ccccc1N1CCN(C2CCC(NC(=O)Nc3ccc(F)cc3F)CC2)CC1` (trans isomer), for which the Ki in assay [1] is 3.1 nM; in assay [2], 76 nM; on D(2) dopamine receptor, 0.69 nM.
For `CC(C)Oc1ccccc1N1CCN(C2CCC(NC(=O)Nc3c(Cl)cc(Cl)cc3Cl)CC2)CC1` (trans isomer) [listing 2 of 2 here], in the assay filed under Homo sapiens, the Ratio Ki is 4.

For the origin of these results see ChEMBL document CHEMBL1143857, “(Phenylpiperazinyl)cyclohexylureas: discovery of alpha1a/1d-selective adrenergic receptor antagonists for the treatment of benign prostatic hyperplasia/lower urinary tract symptoms (BPH/LUTS)” (Bioorg Med Chem Lett, 2008).
